Results taken from patent US5747452A, “Method of modulating tumor cell migration using fibronectin type III peptides” (La Jolla Cancer Research Foundation, priority 1995, dated 1998).

System: C11 CHO cells
Assay: Migration assay (in vitro wounding assay)
Format: cell-based, Chinese Hamster
Conditions: 50 μM for 48 hours
Method: Migration was tested by using Chinese Hamster Ovary (CHO) cells in an in vitro "wounding" assay as described previously (Giancotti and Ruoslahti, Cell 60,849(1990)). CHO cells are commercially available and have ATCC number CRL 9096. A3 is an overexpressor of the α5 β1 integrin created by cDNA transfection as described in the article cited above. C11 is a control-transfected line expressing only the endogenous CHO α5 β1. As described in Example XIV below, cells were grown in the absence or presence of 50 μM III1 -C for 48 hours, then the culture was "wounded" by removing cells from the plastic dish by scraping the dish with a plastic pipette tip. The migration of the cells into the "wound" path was monitored by photography at various times.
It is known from previous work (see Giancotti and Ruoslahti, (1990), supra) that there is a correlation between an increase in fibronectin matrix assembly and the decrease in tumorigenic phenotype. Since the polypeptides of the present invention including the recombinant polypeptides are able to modulate fibronectin matrix assembly, these proteins were tested to determine if they could modulate the tumorigenic phenotype of cells. […] As a comparison, A3 CHO cells, which do overexpress α5 β1, fibronectin receptors and are less tumorigenic, were grown in parallel. […]

With “III1 -C: Sequence ID No. 11; recombinant protein, residues 600-674 of human fibronectin, from pGEX-2T” the “effect on cell migration” value was “retardation of their migration”.
